Source: article PMC6151961 (Journal of Enzyme Inhibition and Medicinal Chemistry, 2018)
Where two headings read alike, the source gives them in different places.

Key:
CA IX [1] = target: T1, CA IX (Homo sapiens, UniProt Q16790); experiment: biochemical
CA IX [2] = target: T1, CA IX; settings: cited from earlier work; for Ki: read-out: Ki
[3] = experimental value used for the QSPR model, library compounds (IDs A…, B…), equals log10 of Ki in nM
[4] = experimental value from the library Ki (IDs A…, B…), values equal log10 of Ki in nM
[5] = library compounds with IDs A… and B…, from observed Ki (nM)
[6] = library compounds (IDs A…, B…), observed Ki towards CA IX, ref ChEMBL and BindingDB
[7] = library compounds (IDs A…, B…), values equal log10 of Ki in nM, ref ChEMBL and BindingDB
[8] = observed Ki of library compounds (IDs A…, B…), ref ChEMBL and BindingDB
[9] = observed Ki of library compounds (IDs A..., B...), ref ChEMBL, BindingDB

NS(=O)(=O)c1ccc(CCNCc2cc(Cl)cc(Cl)c2O)cc1 [A0260]
log10 of Ki in nM (CA IX [1]; [3]): 0.613

NS(=O)(=O)c1nnc(NS(=O)(=O)c2ccc(NC(=O)CCC(=O)O)cc2)s1 [A0151]
log10 of Ki in nM (CA IX [1]; [4]): 0.477

CCCN(CCC)S(=O)(=O)c1ccc(C(=O)N[C@@H](CS)C(=O)O)cc1 [A1793]
log10 of Ki in nM (CA IX [1]; [4]): 2.305

NS(=O)(=O)c1ccc2nc(-n3cc(/C=N/O)c(-c4ccc([N+](=O)[O-])cc4)n3)sc2c1 [A1655]
log10 of Ki in nM (CA IX [1]; [5]): 2.076

C=CCOc1cc(=S)oc2ccccc12 [A2239]
log10 of Ki in nM (CA IX [1]; [5]): 3.483

NS(=O)(=O)c1ccc(NC(=O)Cn2ccc(=O)c(S(N)(=O)=O)c2)cc1 [B0371]
log10 of Ki in nM (CA IX [1]): 1.491

N#Cc1c(-c2ccc(Br)cc2)cn(-c2ccc(S(N)(=O)=O)cc2)c1NC(=O)c1ccc(Br)cc1 [B0101]
log10 of Ki in nM (CA IX [1]; [5]): 0.724

NS(=O)(=O)c1ccc(NC(=S)N[C@@H]2O[C@H](CO)[C@H](O)[C@H](O)[C@H]2O)cc1 [A0430]
log10 of Ki in nM (CA IX [1]; [4]): 0.845

Cc1ccc2c(c1)/C(=N\c1ccc(C(=O)Nc3ccc(S(N)(=O)=O)cc3)cc1)C(=O)N2 [B0670]
log10 of Ki in nM (CA IX [1]; [3]): 2.303

NS(=O)(=O)c1cccc(-c2cn([C@@H]3O[C@H](CO)[C@@H](O)[C@H](O)[C@H]3O)nn2)c1 [A1463]
log10 of Ki in nM (CA IX [1]; [3]): 1.893

NS(=O)(=O)c1ccc(C(=O)NCc2cn([C@@H]3O[C@H](CO)[C@H](O)[C@H](O)[C@H]3O)nn2)cc1 [A1960]
log10 of Ki in nM (CA IX [1]): 2.556

Cc1ccc2c(n1)SCc1cnc(Nc3ccc(S(N)(=O)=O)cc3)nc1-2 [A0518]
log10 of Ki in nM (CA IX [1]; [4]): 0.908

Cc1cc(C)oc(=O)c1 [B0786]
log10 of Ki in nM (CA IX [1]; [3]): 3.393

Oc1ccccc1/C=N/CCCC/N=C/c1ccccc1O [A2462]
log10 of Ki in nM (CA IX [1]; [3]): 4.021

Cc1ccc(-c2nn(-c3ccc(S(N)(=O)=O)cc3)cc2-c2nc3ccccc3[nH]2)cc1 [A1267]
log10 of Ki in nM (CA IX [1]; [4]): 1.693

CC(C)(C)OC(=O)N(CCCCN(CCCNC(=O)C(F)(F)F)C(=O)OC(C)(C)C)CCCNC(=O)C(F)(F)F [A2554]
log10 of Ki in nM (CA IX [1]; [5]): 5.093

CCOC(=O)NC(=S)N(CC(=O)c1ccccc1)c1ccc(S(N)(=O)=O)cc1 [A0977]
log10 of Ki in nM (CA IX [1]; [4]): 1.398

COc1ccc2c(c1)CCN(S(N)(=O)=O)[C@H]2c1ccccc1 [A1457]
Ki (CA IX [2]; [6]): 78 nM
log10 of Ki in nM (CA IX [2]; [7]): 1.892

NS(=O)(=O)c1ccc(-n2cc(/C=N/Nc3nc(-c4cc5cc(Br)ccc5oc4=O)cs3)c(-c3ccc(Cl)cc3)n2)cc1 [B0302]
log10 of Ki in nM (CA IX [2]; [7]): 1.362
Ki (CA IX [2]; [8]): 23 nM

NS(=O)(=O)c1ccc2c(c1)S(=O)(=O)C[C@H]2OCc1ccccc1 [A0131]
Ki (CA IX [2]; library compounds (IDs A…, B…) of Table S4, ref ChEMBL and BindingDB): 2.8 nM
log10 of Ki in nM (CA IX [2]; [7]): 0.447

NS(=O)(=O)c1ccc(CNC(=S)Nc2ccc(C3c4ccc(O)cc4Oc4cc(O)ccc43)c(C(=O)O)c2)cc1 [B0334]
Ki (CA IX [2]; [6]): 26 nM
log10 of Ki in nM (CA IX [2]; [7]): 1.415

CC(=O)OC[C@@H]1O[C@H](SNCCc2ccc(S(N)(=O)=O)cc2)[C@@H](OC(C)=O)[C@H](OC(C)=O)[C@@H]1OC(C)=O [B0585]
log10 of Ki in nM (CA IX [2]): 1.987
Ki (CA IX [2]): 97 nM

Cc1ccc(-c2cnc(C(=O)N3CCCC3)o2)cc1S(N)(=O)=O [B0431]
Ki (CA IX [2]; [9]): 43 nM

COc1ccc2c(c1)CCN(S(N)(=O)=O)[C@H]2c1ccc(S(N)(=O)=O)cc1 [A0401]
log10 of Ki in nM (CA IX [2]): 0.813
Ki (CA IX [2]): 6.5 nM

CC1(C)O[C@@H]2O[C@H]([C@@H]3COC(C)(C)O3)[C@@H](OS(N)(=O)=O)[C@@H]2O1 [B0417]
log10 of Ki in nM (CA IX [2]): 1.591
Ki (CA IX [2]): 39 nM

NS(=O)(=O)c1ccc(-c2cn([C@H]3O[C@H](CO)[C@@H](O)[C@@H](O)[C@H]3O)nn2)cc1 [B0619]
log10 of Ki in nM (CA IX [2]): 2.079
Ki (CA IX [2]): 120 nM

CC(=O)OC[C@@H]1O[C@H](S(=O)(=O)Cc2cn(-c3ccc(S(N)(=O)=O)cc3)nn2)[C@@H](OC(C)=O)[C@H](OC(C)=O)[C@H]1OC(C)=O [B0149]
log10 of Ki in nM (CA IX [2]): 0.875
Ki (CA IX [2]): 7.5 nM

NS(=O)(=O)c1ccc(CCNc2nc(N[C@@H](CO)C(=O)O)nc(N[C@H](CO)C(=O)O)n2)cc1 [B0192]
log10 of Ki in nM (CA IX [2]): 0.954
Ki (CA IX [2]): 9 nM

CC(=O)OC[C@@H]1O[C@@H](S(=O)(=O)Cc2nnn(-c3ccc(S(N)(=O)=O)cc3)c2I)[C@H](OC(C)=O)[C@@H](OC(C)=O)[C@@H]1OC(C)=O [B0586]
log10 of Ki in nM (CA IX [2]): 1.987
Ki (CA IX [2]): 97 nM

Cc1cc(C)c2nc(S)n(-c3ccc(S(N)(=O)=O)cc3)c(=O)c2c1 [B0272]
log10 of Ki in nM (CA IX [2]; library compounds (IDs A..., B...), values equal log10 of Ki in nM, ref ChEMBL, BindingDB): 1.255
Ki (CA IX [2]; [9]): 18 nM

CC[C@@H](Sc1nc(-c2cccc(OC)c2)c(C#N)c(=O)[nH]1)C(=O)Nc1ccc(S(N)(=O)=O)cc1 [A0953]
log10 of Ki in nM (CA IX [2]; [7]): 1.380
Ki (CA IX [2]; [8]): 24 nM

O=S(=O)(NO)N[C@H]1C=C[C@H](O)[C@@H](CO)O1 [A0589]
log10 of Ki in nM (CA IX [2]): 0.954
Ki (CA IX [2]): 9 nM

N#Cc1ccc(-c2cs/c(=N\c3ccc(S(N)(=O)=O)cc3)n2C2CCCCC2)cc1 [B0361]
log10 of Ki in nM (CA IX [2]; [7]): 1.477
Ki (CA IX [2]; [8]): 30 nM
